Key:
[1] = target: Death-associated protein kinase 3 (Homo sapiens) (UniProt O43293); conditions: Compound concentration 100.0 nM
[2] = target: Ephrin type-B receptor 1 (Homo sapiens) (UniProt P54762); conditions: Compound concentration 100.0 nM
[3] = target: Serine/threonine-protein kinase WNK3 (Homo sapiens) (UniProt Q9BYP7); conditions: Compound concentration 100.0 nM
[4] = target: Proto-oncogene tyrosine-protein kinase receptor Ret (Homo sapiens) (UniProt P07949); conditions: Compound concentration 100.0 nM
[5] = tested on: Phosphatidylinositol 4,5-bisphosphate 3-kinase catalytic subunit alpha isoform (Homo sapiens), P42336 [Q546K]; conditions: Compound concentration 100.0 nM
[6] = target: Serine/threonine-protein kinase D3 (Homo sapiens) (UniProt O94806); conditions: Compound concentration 100.0 nM
[7] = target: Cyclin-dependent kinase 14 (Homo sapiens) (UniProt O94921); conditions: Compound concentration 100.0 nM
Chain of Cyclin-dependent kinase 14 (Homo sapiens) (O94921 whole entry): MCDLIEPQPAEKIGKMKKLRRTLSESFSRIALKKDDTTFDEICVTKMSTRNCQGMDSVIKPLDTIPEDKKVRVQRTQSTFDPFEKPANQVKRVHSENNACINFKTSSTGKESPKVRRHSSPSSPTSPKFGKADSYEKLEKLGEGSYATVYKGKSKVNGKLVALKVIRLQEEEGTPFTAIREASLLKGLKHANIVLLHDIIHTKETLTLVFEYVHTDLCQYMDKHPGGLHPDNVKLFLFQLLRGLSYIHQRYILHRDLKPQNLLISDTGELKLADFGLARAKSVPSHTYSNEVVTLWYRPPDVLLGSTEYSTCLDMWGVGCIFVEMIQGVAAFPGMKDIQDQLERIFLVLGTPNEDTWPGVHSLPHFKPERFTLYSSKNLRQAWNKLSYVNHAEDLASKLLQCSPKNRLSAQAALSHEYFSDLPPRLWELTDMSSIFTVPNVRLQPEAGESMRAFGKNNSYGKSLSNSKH

[8] = target: Non-receptor tyrosine-protein kinase TYK2 (Homo sapiens) (UniProt P29597); conditions: Compound concentration 100.0 nM
[9] = target: Calcium/calmodulin-dependent protein kinase kinase 1 (Homo sapiens) (UniProt Q8N5S9); conditions: Compound concentration 100.0 nM
Chain of Calcium/calmodulin-dependent protein kinase kinase 1 (Homo sapiens) (Q8N5S9 whole entry, looked up): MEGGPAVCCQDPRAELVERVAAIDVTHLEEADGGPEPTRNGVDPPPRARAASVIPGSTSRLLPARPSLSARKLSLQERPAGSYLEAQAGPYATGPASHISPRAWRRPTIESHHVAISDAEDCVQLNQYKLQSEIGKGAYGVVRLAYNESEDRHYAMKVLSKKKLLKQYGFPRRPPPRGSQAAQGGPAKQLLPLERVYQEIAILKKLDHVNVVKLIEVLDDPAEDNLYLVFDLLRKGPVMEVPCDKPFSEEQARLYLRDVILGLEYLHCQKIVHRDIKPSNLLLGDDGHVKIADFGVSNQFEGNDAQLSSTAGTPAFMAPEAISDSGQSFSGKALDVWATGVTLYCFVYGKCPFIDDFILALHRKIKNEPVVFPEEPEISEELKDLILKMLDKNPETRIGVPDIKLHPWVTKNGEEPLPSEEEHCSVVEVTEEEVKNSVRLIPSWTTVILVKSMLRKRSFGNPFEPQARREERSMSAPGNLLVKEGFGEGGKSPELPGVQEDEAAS

[10] = target: Serine/threonine-protein kinase PAK 3 (Homo sapiens) (UniProt O75914); conditions: Compound concentration 100.0 nM
[11] = target: Serine/threonine-protein kinase 38 (Homo sapiens) (UniProt Q15208); conditions: Compound concentration 100.0 nM
[12] = target: Phosphatidylinositol 4-kinase beta (Homo sapiens) (UniProt Q9UBF8); conditions: Compound concentration 100.0 nM
[13] = target: Mitogen-activated protein kinase 6 (Homo sapiens) (UniProt Q16659); conditions: Compound concentration 100.0 nM
[14] = target: 1-phosphatidylinositol 3-phosphate 5-kinase (Homo sapiens) (UniProt Q9Y2I7); conditions: Compound concentration 100.0 nM
[15] = target: Serine/threonine-protein kinase BRSK1 (Homo sapiens) (UniProt Q8TDC3); conditions: Compound concentration 100.0 nM
[16] = target: Tyrosine-protein kinase receptor UFO (Homo sapiens) (UniProt P30530); conditions: Compound concentration 100.0 nM
[17] = target: cAMP-dependent protein kinase catalytic subunit PRKX (Homo sapiens) (UniProt P51817); conditions: Compound concentration 100.0 nM
[18] = target: G protein-coupled receptor kinase 4 (Homo sapiens) (UniProt P32298); conditions: Compound concentration 100.0 nM
[19] = target: Mitogen-activated protein kinase 7 (Homo sapiens) (UniProt Q13164); conditions: Compound concentration 100.0 nM
[20] = target: Aurora kinase B (Homo sapiens) (UniProt Q96GD4); conditions: Compound concentration 100.0 nM
[21] = target: Tyrosine-protein kinase CSK (Homo sapiens) (UniProt P41240); conditions: Compound concentration 100.0 nM
[22] = target: Megakaryocyte-associated tyrosine-protein kinase (Homo sapiens) (UniProt P42679); conditions: Compound concentration 100.0 nM
[23] = target: Insulin receptor (Homo sapiens) (UniProt P06213); conditions: Compound concentration 100.0 nM
[24] = target: Glycogen synthase kinase-3 alpha (Homo sapiens) (UniProt P49840); conditions: Compound concentration 100.0 nM
Chain of Glycogen synthase kinase-3 alpha (Homo sapiens) (P49840 2-483 limits assumed): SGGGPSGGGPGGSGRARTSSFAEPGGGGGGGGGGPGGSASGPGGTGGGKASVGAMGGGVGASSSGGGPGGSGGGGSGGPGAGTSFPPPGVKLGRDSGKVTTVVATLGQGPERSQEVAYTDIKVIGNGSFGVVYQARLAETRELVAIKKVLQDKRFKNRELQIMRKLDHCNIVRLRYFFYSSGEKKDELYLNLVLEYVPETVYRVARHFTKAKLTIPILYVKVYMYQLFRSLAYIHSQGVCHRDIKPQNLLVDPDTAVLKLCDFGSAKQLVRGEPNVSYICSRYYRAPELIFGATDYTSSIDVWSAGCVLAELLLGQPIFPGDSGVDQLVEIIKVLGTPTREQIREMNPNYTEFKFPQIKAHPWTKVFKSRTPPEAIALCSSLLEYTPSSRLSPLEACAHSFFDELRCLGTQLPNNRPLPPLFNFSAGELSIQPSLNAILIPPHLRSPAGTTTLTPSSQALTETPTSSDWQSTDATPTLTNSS

[25] = target: 5-hydroxytryptamine receptor 6 (Homo sapiens) (UniProt P50406); conditions: Compound concentration 10.0 uM
[26] = target: Serine/threonine-protein kinase 26 (Homo sapiens) (UniProt Q9P289); conditions: Compound concentration 100.0 nM
[27] = target: Rhodopsin kinase GRK7 (Homo sapiens) (UniProt Q8WTQ7); conditions: Compound concentration 100.0 nM
[28] = target: Citron Rho-interacting kinase (Homo sapiens) (UniProt O14578); conditions: Compound concentration 100.0 nM
[29] = target: Casein kinase II subunit alpha (Homo sapiens) (UniProt P68400); conditions: Compound concentration 100.0 nM
Chain of Casein kinase II subunit alpha (Homo sapiens) (P68400 whole entry, looked up): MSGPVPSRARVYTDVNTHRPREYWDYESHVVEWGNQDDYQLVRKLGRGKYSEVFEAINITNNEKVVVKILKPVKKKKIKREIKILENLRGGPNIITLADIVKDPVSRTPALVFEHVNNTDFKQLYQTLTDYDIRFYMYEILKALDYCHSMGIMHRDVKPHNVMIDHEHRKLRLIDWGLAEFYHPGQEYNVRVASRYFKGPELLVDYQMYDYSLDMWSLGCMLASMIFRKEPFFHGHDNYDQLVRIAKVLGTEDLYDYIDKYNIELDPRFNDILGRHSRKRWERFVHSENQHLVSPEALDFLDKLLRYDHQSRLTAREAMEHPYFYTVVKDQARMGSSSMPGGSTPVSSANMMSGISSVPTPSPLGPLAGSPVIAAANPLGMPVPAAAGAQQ

[30] = target: Serine/threonine-protein kinase Chk1 (Homo sapiens) (UniProt O14757); conditions: Compound concentration 100.0 nM
[31] = target: Phosphatidylinositol 3-kinase catalytic subunit type 3 (Homo sapiens) (UniProt Q8NEB9); conditions: Compound concentration 100.0 nM
[32] = target: Alpha-1B adrenergic receptor (Homo sapiens) (UniProt P35368); conditions: Compound concentration 10.0 uM
[33] = target: Mitogen-activated protein kinase kinase kinase 1 (Homo sapiens) (UniProt Q13233); conditions: Compound concentration 100.0 nM
[34] = target: Ribosomal protein S6 kinase alpha-4 (Homo sapiens) (UniProt O75676); conditions: Compound concentration 100.0 nM
[35] = target: 5-hydroxytryptamine receptor 7 (Homo sapiens) (UniProt P34969); conditions: Compound concentration 10.0 uM
[36] = tested on: Mast/stem cell growth factor receptor Kit (Homo sapiens), P10721 [L576P]; conditions: Compound concentration 100.0 nM
[37] = target: ALK tyrosine kinase receptor (Homo sapiens) (UniProt Q9UM73); conditions: Compound concentration 100.0 nM
Chain of ALK tyrosine kinase receptor (Homo sapiens) (Q9UM73 19-1620 limits assumed): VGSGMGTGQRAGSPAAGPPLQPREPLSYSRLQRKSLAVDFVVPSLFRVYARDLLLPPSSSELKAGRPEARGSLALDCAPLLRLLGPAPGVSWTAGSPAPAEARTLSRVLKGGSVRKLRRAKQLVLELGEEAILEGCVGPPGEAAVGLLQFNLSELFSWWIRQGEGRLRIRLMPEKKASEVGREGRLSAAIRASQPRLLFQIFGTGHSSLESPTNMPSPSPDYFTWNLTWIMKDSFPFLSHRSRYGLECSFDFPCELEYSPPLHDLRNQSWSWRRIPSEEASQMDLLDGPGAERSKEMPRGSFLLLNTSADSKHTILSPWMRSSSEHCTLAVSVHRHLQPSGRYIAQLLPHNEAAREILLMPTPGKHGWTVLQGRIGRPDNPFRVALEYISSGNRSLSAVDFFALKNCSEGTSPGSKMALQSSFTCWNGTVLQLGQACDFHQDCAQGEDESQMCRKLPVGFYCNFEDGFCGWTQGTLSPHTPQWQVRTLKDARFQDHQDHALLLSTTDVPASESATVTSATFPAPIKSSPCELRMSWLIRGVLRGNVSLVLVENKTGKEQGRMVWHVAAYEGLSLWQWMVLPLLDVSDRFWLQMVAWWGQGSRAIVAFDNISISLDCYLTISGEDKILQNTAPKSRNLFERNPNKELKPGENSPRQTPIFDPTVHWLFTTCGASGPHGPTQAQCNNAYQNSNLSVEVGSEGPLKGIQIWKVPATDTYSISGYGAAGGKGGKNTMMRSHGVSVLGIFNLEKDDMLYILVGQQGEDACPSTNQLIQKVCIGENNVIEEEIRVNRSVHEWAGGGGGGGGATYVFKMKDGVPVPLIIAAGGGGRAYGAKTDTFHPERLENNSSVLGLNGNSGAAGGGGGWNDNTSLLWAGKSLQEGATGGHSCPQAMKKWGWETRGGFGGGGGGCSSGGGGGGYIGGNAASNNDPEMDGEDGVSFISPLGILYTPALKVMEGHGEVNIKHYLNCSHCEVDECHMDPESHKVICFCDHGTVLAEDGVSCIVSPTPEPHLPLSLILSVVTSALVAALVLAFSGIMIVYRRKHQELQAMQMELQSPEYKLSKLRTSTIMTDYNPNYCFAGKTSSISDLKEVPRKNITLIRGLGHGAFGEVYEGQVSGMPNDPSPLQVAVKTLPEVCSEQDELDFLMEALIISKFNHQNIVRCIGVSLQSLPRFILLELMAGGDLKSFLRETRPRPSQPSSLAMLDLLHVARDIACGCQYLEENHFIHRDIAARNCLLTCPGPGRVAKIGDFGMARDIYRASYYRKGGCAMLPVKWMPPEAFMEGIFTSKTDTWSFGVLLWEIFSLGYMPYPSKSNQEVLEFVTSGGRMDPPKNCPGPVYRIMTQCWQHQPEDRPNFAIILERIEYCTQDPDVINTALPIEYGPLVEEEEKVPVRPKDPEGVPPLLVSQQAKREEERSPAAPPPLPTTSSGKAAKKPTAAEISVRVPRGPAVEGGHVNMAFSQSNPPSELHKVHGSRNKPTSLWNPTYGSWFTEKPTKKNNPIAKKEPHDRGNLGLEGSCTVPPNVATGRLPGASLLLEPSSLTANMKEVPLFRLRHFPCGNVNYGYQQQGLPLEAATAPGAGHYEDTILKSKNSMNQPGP

[38] = target: Rho-associated protein kinase 2 (Homo sapiens) (UniProt O75116); conditions: Compound concentration 100.0 nM
[39] = target: Phosphatidylinositol 5-phosphate 4-kinase type-2 gamma (Homo sapiens) (UniProt Q8TBX8); conditions: Compound concentration 100.0 nM
[40] = target: Serine/threonine-protein kinase 25 (Homo sapiens) (UniProt O00506); conditions: Compound concentration 100.0 nM
[41] = target: Cyclin-dependent kinase 18 (Homo sapiens) (UniProt Q07002); conditions: Compound concentration 100.0 nM
[42] = target: Serine/threonine-protein kinase MAK (Homo sapiens) (UniProt P20794); conditions: Compound concentration 100.0 nM
Chain of Serine/threonine-protein kinase MAK (Homo sapiens) (P20794 whole entry): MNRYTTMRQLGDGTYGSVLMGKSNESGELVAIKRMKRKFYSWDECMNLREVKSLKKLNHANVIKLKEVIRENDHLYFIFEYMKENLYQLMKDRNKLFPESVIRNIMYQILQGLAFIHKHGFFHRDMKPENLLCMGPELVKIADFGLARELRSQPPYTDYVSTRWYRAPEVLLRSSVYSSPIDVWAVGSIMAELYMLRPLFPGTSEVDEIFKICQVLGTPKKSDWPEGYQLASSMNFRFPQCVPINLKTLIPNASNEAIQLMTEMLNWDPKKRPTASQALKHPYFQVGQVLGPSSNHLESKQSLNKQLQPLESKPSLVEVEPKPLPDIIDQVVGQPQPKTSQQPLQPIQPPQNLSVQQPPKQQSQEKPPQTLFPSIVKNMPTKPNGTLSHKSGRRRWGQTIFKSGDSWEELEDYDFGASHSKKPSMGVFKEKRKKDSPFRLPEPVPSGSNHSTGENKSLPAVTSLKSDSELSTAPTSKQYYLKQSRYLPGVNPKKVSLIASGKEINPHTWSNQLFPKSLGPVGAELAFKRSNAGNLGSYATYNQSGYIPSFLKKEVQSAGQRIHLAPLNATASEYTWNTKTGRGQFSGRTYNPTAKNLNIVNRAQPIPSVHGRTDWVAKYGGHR

[43] = target: Protein kinase C eta type (Homo sapiens) (UniProt P24723); conditions: Compound concentration 100.0 nM
[44] = target: Beta-adrenergic receptor kinase 1 (Homo sapiens) (UniProt P25098); conditions: Compound concentration 100.0 nM
[45] = target: Phosphatidylinositol 4,5-bisphosphate 3-kinase catalytic subunit delta isoform (Homo sapiens) (UniProt O00329); conditions: Compound concentration 100.0 nM
[46] = target: Cyclin-dependent kinase 4 (Homo sapiens) (UniProt P11802); conditions: Compound concentration 100.0 nM
Chain of Cyclin-dependent kinase 4 (Homo sapiens) (P11802 whole entry): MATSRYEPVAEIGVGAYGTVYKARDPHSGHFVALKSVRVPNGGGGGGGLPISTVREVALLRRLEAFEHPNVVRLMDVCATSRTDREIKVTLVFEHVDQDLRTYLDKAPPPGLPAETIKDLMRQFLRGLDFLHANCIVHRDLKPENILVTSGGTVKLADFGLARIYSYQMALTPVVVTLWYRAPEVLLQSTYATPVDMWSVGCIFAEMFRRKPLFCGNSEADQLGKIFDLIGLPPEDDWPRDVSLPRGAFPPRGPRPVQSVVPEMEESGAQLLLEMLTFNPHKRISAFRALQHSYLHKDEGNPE

Chain of Death-associated protein kinase 3 (Homo sapiens) (O43293 whole entry, looked up): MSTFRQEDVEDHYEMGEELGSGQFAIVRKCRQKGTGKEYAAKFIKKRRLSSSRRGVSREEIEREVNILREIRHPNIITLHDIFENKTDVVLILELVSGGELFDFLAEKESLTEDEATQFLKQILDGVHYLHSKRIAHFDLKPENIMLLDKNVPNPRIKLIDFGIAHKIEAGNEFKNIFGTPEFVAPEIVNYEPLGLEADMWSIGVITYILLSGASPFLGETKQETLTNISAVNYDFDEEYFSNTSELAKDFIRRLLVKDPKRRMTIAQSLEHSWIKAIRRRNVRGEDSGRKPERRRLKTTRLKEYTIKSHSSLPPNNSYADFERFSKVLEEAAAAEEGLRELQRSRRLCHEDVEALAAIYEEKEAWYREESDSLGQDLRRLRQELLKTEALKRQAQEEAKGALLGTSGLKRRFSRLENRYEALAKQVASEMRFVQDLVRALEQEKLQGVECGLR

O=C(NCCCC1CCCCC1)c1ccc(CNC(=O)c2cnn(-c3ccccc3)c2C(F)(F)F)cc1 [SR-321]
inactive: residual activity [1] 92% | residual activity [2] 89% | residual activity [3] 100% | residual activity [4] 89% | residual activity [5] 67% | residual activity [6] 99% | residual activity [7] 100% | residual activity [8] 100% | residual activity [9] 100% | residual activity [10] 100% | residual activity [11] 93% | residual activity [12] 77% | residual activity [13] 100% | residual activity [14] 65% | residual activity [15] 100% | residual activity [16] 95% | residual activity [17] 100% | residual activity [18] 100% | residual activity [19] 100% | residual activity [20] 95% | residual activity [21] 100% | residual activity [22] 100% | residual activity [23] 100% | residual activity [24] 100% | inhibition [25] -0.05% | residual activity [26] 93% | residual activity [27] 100% | residual activity [28] 86% | residual activity [29] 94% | residual activity [30] 100% | residual activity [31] 100% | inhibition [32] -3.62% | residual activity [33] 65% | residual activity [34] 83% | inhibition [35] 25.8% | residual activity [36] 100% | residual activity [37] 100% | residual activity [38] 100% | residual activity [39] 99% | residual activity [40] 81% | residual activity [41] 100% | residual activity [42] 100% | residual activity [43] 100% | residual activity [44] 100% | residual activity [45] 100% | residual activity [46] 100%

Nc1c(C(=O)NCc2ccc(C(=O)NCCCC3CCCCC3)cc2)cnn1-c1ccccc1 [SR-318]
inactive: residual activity [1] 100% | residual activity [2] 100% | residual activity [3] 92% | residual activity [4] 89% | residual activity [5] 96% | residual activity [6] 92% | residual activity [7] 100% | residual activity [8] 100% | residual activity [9] 100% | residual activity [10] 100% | residual activity [11] 96% | residual activity [12] 100% | residual activity [13] 92% | residual activity [14] 100% | residual activity [15] 94% | residual activity [16] 87% | residual activity [17] 87% | residual activity [18] 100% | residual activity [19] 78% | residual activity [20] 81% | residual activity [21] 100% | residual activity [22] 100% | residual activity [23] 100% | residual activity [24] 100% | inhibition [25] 26.8% | residual activity [26] 97% | residual activity [27] 100% | residual activity [28] 100% | residual activity [29] 70% | residual activity [30] 100% | residual activity [31] 99% | inhibition [32] 8.69% | residual activity [33] 96% | residual activity [34] 85% | inhibition [35] 13.2% | residual activity [36] 73% | residual activity [37] 100% | residual activity [38] 100% | residual activity [39] 100% | residual activity [40] 82% | residual activity [41] 100% | residual activity [42] 100% | residual activity [43] 98% | residual activity [44] 100% | residual activity [45] 94% | residual activity [46] 100%
